Measured values: publication PMC11589570, “Critical assessment of LC3/GABARAP ligands used for degrader development and ligandability of LC3/GABARAP binding pockets” (Nature Communications, 2024)
Values joined by “and” are separate entries in the source; they are usually repeats but may differ in a detail not shown here. Equal values may be shown once.

Experiments:
Assay type in all cases: cell-based
RPE1 cells = assay: Cell growth assay (IncuCyte confluence over 72 h); conditions: listed as AN2
How it was run: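 Phase confluence (% area covered by cells) imaged every 2 h for 72 h after compound addition; cells in DMEM/10% FBS, seeded 24 h before treatment. Controls were 0.1% DMSO, 250 nM Torin1 and 200 ng/mL Bafilomycin (final). Each point averages three wells.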

U2OS cells = assay: Cell growth assay (IncuCyte confluence over 72 h); design: key to U2OS cell growth: % of well area covered by cells (confluence)
How it was run: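 U2OS cells were grown in DMEM with 10% FBS for 24 h before treatment. Confluence was then tracked by IncuCyte phase imaging over 72 h and expressed as % of well area covered by cells. Each point is the average of three wells.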

[1] = test system: RPE-1 GFP-LC3B-RPF-LC3∆G reporter cell line; assay: Autophagy flux assay; conditions: rebuttal letter
From the text: LC3/GABARAP in vitro, but no attempts are made to replicate the previously reported cellular activity of these compounds. It would be beneficial to know whether these compounds have any effect on autophagy in the authors’ hands, and therefore could act by alternative mechanisms, or whether they […]
Response: We were very concerned that the ligands used for ATTEC development might induce general toxicity in cell lines, as they are based on drugs used in oncology (such as the kinesin inhibitor 10O5) and the isoxazole scaffold often used in the development of multi-targeted kinase inhibitors. However, we have now investigated compounds 1-4 in autophagy flux assays using the RPE-1 GFP-LC3B-RPF-LC3∆G reporter cell line (single clone) as […]
reported in [PMID:37558952].
(RR_Figure 6). The authors of the first manuscript reporting these ligands [PMID: 31666698]
However, due to the potent activity of 8F20 on KIF11, which will have profound effects on cell trafficking and growth, and DCAF11 (AN1, [PMID: 38036533]), we find it unlikely that the effects on autophagy are due to LC3/GABARAP modulation. Due to the lack of target (LC3/GABARAP) binding in vitro and the […]
of this review but have excluded the data in the manuscript.
RR_figure 5: Autophagy flux measurement for 10O5 and AN2. No induction of autophagy or effects (right panels, assessed by Incucyte (Sartorius) life cell imaging) on cell growth was […]
RR_figure 6: Autophagy flux measurement for 8F20 and AN1 show changes in autophagy flux […]
It is not clear how many biological replicates have been performed. For example, the figure legends […]

With `O=c1cc(-c2ccccc2)c2c(O)cc(O)cc2o1` [compound 2] the RPE1 cell growth (RPE1 cells; 100 nM, 0 h) was 20 and 12 and 15, the RPE1 cell growth (RPE1 cells; 100 nM, 2 h) was 24 and 13 and 16 and the RPE1 cell growth (RPE1 cells; 100 nM, 4 h) was 26 and 14 and 18. For the same molecule, the RPE1 cell growth (RPE1 cells; 100 nM, 6 h) was 28 and 15 and 18, the RPE1 cell growth (RPE1 cells; 100 nM, 8 h) was 30 and 15 and 19 and the RPE1 cell growth (RPE1 cells; 100 nM, 10 h) was 32 and 17. The RPE1 cell growth (RPE1 cells; 500 nM, 0 h) was 22 and 20, the RPE1 cell growth (RPE1 cells; 500 nM, 2 h) was 27 and 18 and 21 and the RPE1 cell growth (RPE1 cells; 500 nM, 4 h) was 29 and 19 and 24. The RPE1 cell growth (RPE1 cells; 500 nM, 6 h) was 32 and 20 and 24, the RPE1 cell growth (RPE1 cells; 500 nM, 8 h) was 35 and 21 and 25 and the RPE1 cell growth (RPE1 cells; 1 uM, 0 h) was 17 and 22 and 23. The RPE1 cell growth (RPE1 cells; 1 uM, 2 h) was 19 and 26 and 23, the RPE1 cell growth (RPE1 cells; 1 uM, 4 h) was 22 and 28 and 26 and the RPE1 cell growth (RPE1 cells; 1 uM, 6 h) was 22 and 31 and 24. The RPE1 cell growth (RPE1 cells; 1 uM, 8 h) was 24 and 34 and 27, the RPE1 cell growth (RPE1 cells; 1 uM, 10 h) was 25 and the RPE1 cell growth (RPE1 cells; 3 uM, 0 h) was 24 and 21 and 19. The RPE1 cell growth (RPE1 cells; 3 uM, 2 h) was 30 and 22 and 21, the RPE1 cell growth (RPE1 cells; 3 uM, 4 h) was 32 and 21 and 24 and the RPE1 cell growth (RPE1 cells; 3 uM, 6 h) was 36 and 22 and 26. For the same molecule, the RPE1 cell growth (RPE1 cells; 3 uM, 8 h) was 39 and 24 and 26, the RPE1 cell growth (RPE1 cells; 3 uM, 10 h) was 39 and 27 and 28 and the RPE1 cell growth (RPE1 cells; 5 uM, 0 h) was 22 and 21. The RPE1 cell growth (RPE1 cells; 5 uM, 2 h) was 28 and 21 and 24, the RPE1 cell growth (RPE1 cells; 5 uM, 4 h) was 32 and 22 and 27 and the RPE1 cell growth (RPE1 cells; 5 uM, 6 h) was 35 and 24 and 29. For the same molecule, the RPE1 cell growth (RPE1 cells; 5 uM, 8 h) was 37 and 24 and 30, the RPE1 cell growth (RPE1 cells; 5 uM, 10 h) was 38 and 26 and 32 and the RPE1 cell growth (RPE1 cells; 10 uM, 0 h) was 27 and 24 and 19. For the same molecule, the RPE1 cell growth (RPE1 cells; 10 uM, 2 h) was 31 and 27 and 22, the RPE1 cell growth (RPE1 cells; 10 uM, 4 h) was 34 and 26 and 24 and the RPE1 cell growth (RPE1 cells; 10 uM, 6 h) was 37 and 25 and 26. For the same molecule, the RPE1 cell growth (RPE1 cells; 10 uM, 8 h) was 40 and 29 and 27, the RPE1 cell growth (RPE1 cells; 10 uM, 10 h) was 42 and 31 and 30 and the U2OS cell growth (U2OS cells; 100 nM, time 0 h, listed as AN2) was 19.1869 and 23.0588 and 16.4621. The U2OS cell growth (U2OS cells; 100 nM, time 2 h, listed as AN2) was 26.3735 and 32.6169 and 19.3997, the U2OS cell growth (U2OS cells; 100 nM, time 4 h, listed as AN2) was 24.7952 and 30.3994 and 22.748 and the U2OS cell growth (U2OS cells; 100 nM, time 6 h, listed as AN2) was 35.0609 and 34.7921 and 28.0047. The U2OS cell growth (U2OS cells; 500 nM, time 0 h, listed as AN2) was 31.1146 and 31.1409 and 25.529, the U2OS cell growth (U2OS cells; 500 nM, time 2 h, listed as AN2) was 37.2793 and 37.1141 and 29.374 and the U2OS cell growth (U2OS cells; 500 nM, time 4 h, listed as AN2) was 35.0603 and 34.3575 and 27.3746. The U2OS cell growth (U2OS cells; 500 nM, time 6 h, listed as AN2) was 41.7549 and 43.2861 and 37.4758, the U2OS cell growth (U2OS cells; 500 nM, time 10 h) was 32.7403 and the U2OS cell growth (U2OS cells; 1 uM, time 0 h, listed as AN2) was 36.01 and 37.7334 and 44.0066. The U2OS cell growth (U2OS cells; 1 uM, time 2 h, listed as AN2) was 41.2565 and 41.9214 and 49.8222, the U2OS cell growth (U2OS cells; 1 uM, time 4 h, listed as AN2) was 42.1175 and 41.7454 and 46.9501 and the U2OS cell growth (U2OS cells; 1 uM, time 6 h, listed as AN2) was 43.4595 and 43.9324 and 52.0735. For the same molecule, the U2OS cell growth (U2OS cells; 1 uM, time 8 h, listed as AN2) was 40.5517 and 44.5898 and 47.4794, the U2OS cell growth (U2OS cells; 1 uM, time 10 h, listed as AN2) was 50.4894 and 50.7087 and 57.5735 and the U2OS cell growth (U2OS cells; 1 uM, time 12 h, listed as AN2) was 52.169. The U2OS cell growth (U2OS cells; 3 uM, time 0 h, listed as AN2) was 52.9397 and 44.5639 and 41.1773, the U2OS cell growth (U2OS cells; 3 uM, time 2 h, listed as AN2) was 56.1844 and 48.7409 and 42.4981 and the U2OS cell growth (U2OS cells; 3 uM, time 4 h, listed as AN2) was 62.7365 and 55.2773 and 40.1715. The U2OS cell growth (U2OS cells; 3 uM, time 6 h, listed as AN2) was 59.0724 and 50.9181 and 40.9833, the U2OS cell growth (U2OS cells; 3 uM, time 8 h, listed as AN2) was 54.8708 and 50.2365 and 43.1088 and the U2OS cell growth (U2OS cells; 3 uM, time 10 h, listed as AN2) was 58.4454 and 57.5785 and 49.1427. For the same molecule, the U2OS cell growth (U2OS cells; 3 uM, time 12 h, listed as AN2) was 58.133 and 56.9126, the U2OS cell growth (U2OS cells; 5 uM, time 0 h, listed as AN2) was 43.5311 and 39.437 and 42.1256 and the U2OS cell growth (U2OS cells; 5 uM, time 2 h, listed as AN2) was 49.0024 and 44.0014 and 45.1119. The U2OS cell growth (U2OS cells; 5 uM, time 4 h, listed as AN2) was 52.676 and 42.1033 and 45.9331, the U2OS cell growth (U2OS cells; 5 uM, time 6 h, listed as AN2) was 55.9501 and 52.2867 and 48.2418 and the U2OS cell growth (U2OS cells; 5 uM, time 8 h, listed as AN2) was 48.351 and 54.4267 and 50.4706. The U2OS cell growth (U2OS cells; 5 uM, time 10 h, listed as AN2) was 60.2478 and 59.3897 and 54.3527, the U2OS cell growth (U2OS cells; 10 uM, time 0 h, listed as AN2) was 38.4245 and 29.6214 and 35.113 and the U2OS cell growth (U2OS cells; 10 uM, time 2 h, listed as AN2) was 42.0042 and 29.7485 and 38.264. The U2OS cell growth (U2OS cells; 10 uM, time 4 h, listed as AN2) was 45.9814 and 34.6443 and 44.264, the U2OS cell growth (U2OS cells; 10 uM, time 6 h, listed as AN2) was 49.3993 and 33.9992 and 45.6677 and the U2OS cell growth (U2OS cells; 10 uM, time 8 h, listed as AN2) was 46.5429 and 32.9506 and 41.2472. The U2OS cell growth (U2OS cells; 10 uM, time 10 h, listed as AN2) was 49.5589 and 37.0749 and 46.636, the “autophagy induction (autophagy flux)” value [1] was “did not induce autophagy” and the “effects on cell growth (Incucyte life cell imaging)” value [1] was “No induction of autophagy or effects”.
